Measurements taken from a compilation of properties of binary mixtures (doi:10.1021/acs.jpcb.0c03296).

Assay: xn = mol fraction of the nth substance listed
Conditions: 100 kPa

C[N+](C)(C)CCO.O=S(=O)([N-]S(=O)(=O)C(F)(F)F)C(F)(F)F + OCCO
Conditions	electrical conductivity, x1 = 0.14 [S/m]	electrical conductivity, x1 = 0.2 [S/m]	electrical conductivity, x1 = 0.333 [S/m]	viscosity, x1 = 0.14 [mPa·s]	viscosity, x1 = 0.2 [mPa·s]	viscosity, x1 = 0.333 [mPa·s]
298.1 K	0.313	0.402	0.36	22.27	28.99	30.56
303 K	–	0.494	0.442	–	23.44	24.82
308.1 K	0.456	0.6	0.532	14.46	18.97	20.46
313 K	0.54	0.715	0.635	12.12	15.74	17.15
318.1 K	0.631	0.839	0.745	10.36	13.28	14.48
323 K	–	0.975	0.866	–	11.32	12.28
328.1 K	0.838	1.12	1	7.73	9.77	10.7
